# Experimental data reported in ChEMBL document CHEMBL1201862, “PubChem BioAssay data set” (2004).
# Calls of active or inactive are those of the source.
# What was measured:
# Nonstructural protein 1 = Nonstructural protein 1 (Influenza A virus, UniProt Q194T2); type: functional, Influenza A virus (A/California/07/2009(H1N1))
# [1] = fluconazole-exposed Candida albicans growth modulators – fluorescence, retest, confirmation (AID 2467); type: functional, cell-based
# [2] = target: T1, Histone-lysine N-methyltransferase NSD2 (Homo sapiens, UniProt O96028); type: biochemical
# T1 sequence (O96028 whole entry): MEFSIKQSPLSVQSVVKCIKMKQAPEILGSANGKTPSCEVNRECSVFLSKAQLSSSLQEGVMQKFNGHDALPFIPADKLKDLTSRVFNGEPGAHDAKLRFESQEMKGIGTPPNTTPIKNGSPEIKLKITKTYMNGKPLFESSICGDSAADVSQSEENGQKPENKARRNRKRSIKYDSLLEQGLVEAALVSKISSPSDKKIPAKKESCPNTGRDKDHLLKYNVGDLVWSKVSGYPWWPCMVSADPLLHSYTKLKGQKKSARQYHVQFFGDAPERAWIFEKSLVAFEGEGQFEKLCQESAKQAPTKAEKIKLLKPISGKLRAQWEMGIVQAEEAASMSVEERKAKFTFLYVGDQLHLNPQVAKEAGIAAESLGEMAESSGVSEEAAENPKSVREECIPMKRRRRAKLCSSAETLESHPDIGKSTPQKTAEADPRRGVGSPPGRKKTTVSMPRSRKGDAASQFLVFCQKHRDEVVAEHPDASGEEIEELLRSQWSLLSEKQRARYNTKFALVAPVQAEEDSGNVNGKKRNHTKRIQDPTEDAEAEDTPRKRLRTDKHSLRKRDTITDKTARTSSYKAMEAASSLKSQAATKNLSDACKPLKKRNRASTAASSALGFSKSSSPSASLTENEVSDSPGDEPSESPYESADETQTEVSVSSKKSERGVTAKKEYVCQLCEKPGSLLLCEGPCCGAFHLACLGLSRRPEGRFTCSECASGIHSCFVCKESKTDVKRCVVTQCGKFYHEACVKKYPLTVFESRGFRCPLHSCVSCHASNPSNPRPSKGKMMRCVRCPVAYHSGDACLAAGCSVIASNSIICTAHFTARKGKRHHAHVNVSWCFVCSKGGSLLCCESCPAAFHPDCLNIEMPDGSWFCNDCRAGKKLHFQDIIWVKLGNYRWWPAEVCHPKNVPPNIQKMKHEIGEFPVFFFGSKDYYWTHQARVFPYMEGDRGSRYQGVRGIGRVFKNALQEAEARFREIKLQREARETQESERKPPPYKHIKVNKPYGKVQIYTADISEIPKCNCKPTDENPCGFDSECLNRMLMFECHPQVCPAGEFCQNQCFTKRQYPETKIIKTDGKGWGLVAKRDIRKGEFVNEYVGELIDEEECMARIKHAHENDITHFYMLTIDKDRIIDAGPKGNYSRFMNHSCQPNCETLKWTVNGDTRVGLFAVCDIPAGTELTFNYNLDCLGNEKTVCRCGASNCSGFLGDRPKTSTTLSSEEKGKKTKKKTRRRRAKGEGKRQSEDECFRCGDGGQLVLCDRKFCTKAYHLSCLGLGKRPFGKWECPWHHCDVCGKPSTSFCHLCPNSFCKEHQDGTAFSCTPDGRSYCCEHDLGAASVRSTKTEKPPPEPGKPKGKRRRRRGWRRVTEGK
# [3] = target: High affinity nerve growth factor receptor (Homo sapiens, UniProt P04629); type: functional;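 note: NTRK1 tested as one member of a kinome-wide profiling panel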
# Sequence of High affinity nerve growth factor receptor (P04629 whole entry): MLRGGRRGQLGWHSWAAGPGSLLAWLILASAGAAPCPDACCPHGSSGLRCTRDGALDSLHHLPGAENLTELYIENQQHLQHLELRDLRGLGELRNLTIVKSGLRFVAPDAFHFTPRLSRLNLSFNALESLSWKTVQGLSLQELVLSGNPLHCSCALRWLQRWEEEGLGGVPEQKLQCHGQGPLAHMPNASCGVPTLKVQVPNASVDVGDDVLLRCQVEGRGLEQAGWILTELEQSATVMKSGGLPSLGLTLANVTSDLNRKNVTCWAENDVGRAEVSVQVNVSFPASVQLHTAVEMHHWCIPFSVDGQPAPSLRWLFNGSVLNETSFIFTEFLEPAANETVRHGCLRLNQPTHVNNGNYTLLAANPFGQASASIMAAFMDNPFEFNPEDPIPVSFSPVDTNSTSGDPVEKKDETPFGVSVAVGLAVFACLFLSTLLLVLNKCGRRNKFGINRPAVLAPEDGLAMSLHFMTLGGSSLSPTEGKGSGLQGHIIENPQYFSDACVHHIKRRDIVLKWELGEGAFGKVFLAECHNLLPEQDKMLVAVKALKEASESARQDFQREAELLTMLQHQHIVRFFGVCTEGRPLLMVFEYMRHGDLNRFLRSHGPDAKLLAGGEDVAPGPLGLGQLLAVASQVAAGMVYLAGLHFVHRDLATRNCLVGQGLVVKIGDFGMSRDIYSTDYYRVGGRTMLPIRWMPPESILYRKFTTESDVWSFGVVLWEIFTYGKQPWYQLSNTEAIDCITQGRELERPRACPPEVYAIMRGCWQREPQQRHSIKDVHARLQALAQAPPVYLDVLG
# [4] = target: Insulin-like growth factor 1 receptor (Homo sapiens, UniProt P08069); test: Navigating the Kinome. Panel member name: IGF1R; type: functional
# [5] = target: Tyrosine-protein kinase Srms (Homo sapiens, UniProt Q9H3Y6); type: functional;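 note: SRMS measured as one member of a kinome-wide kinase profiling panel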
# [6] = target: Calcium/calmodulin-dependent protein kinase type II subunit gamma (Homo sapiens, UniProt Q13555); type: functional
# Sequence of Calcium/calmodulin-dependent protein kinase type II subunit gamma (Q13555 whole entry): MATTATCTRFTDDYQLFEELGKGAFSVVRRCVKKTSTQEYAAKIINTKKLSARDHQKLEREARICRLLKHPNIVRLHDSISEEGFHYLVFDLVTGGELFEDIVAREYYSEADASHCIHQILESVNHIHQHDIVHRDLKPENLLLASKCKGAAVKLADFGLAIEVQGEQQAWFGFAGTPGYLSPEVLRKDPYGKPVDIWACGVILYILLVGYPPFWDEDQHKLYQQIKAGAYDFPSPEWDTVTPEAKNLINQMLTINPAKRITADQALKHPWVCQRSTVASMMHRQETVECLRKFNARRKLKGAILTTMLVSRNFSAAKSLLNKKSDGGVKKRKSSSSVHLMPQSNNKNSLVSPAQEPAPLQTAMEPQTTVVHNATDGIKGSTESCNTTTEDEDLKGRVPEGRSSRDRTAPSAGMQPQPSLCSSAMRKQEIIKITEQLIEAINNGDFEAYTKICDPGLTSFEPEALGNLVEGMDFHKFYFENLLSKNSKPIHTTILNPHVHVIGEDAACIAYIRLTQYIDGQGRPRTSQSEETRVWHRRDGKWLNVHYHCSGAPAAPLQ
# Activated CDC42 kinase 1 = Activated CDC42 kinase 1 (Homo sapiens, UniProt Q07912); test: Navigating the Kinome. Panel member name: ACK1; type: functional
# Sequence of Activated CDC42 kinase 1 (Q07912 whole entry): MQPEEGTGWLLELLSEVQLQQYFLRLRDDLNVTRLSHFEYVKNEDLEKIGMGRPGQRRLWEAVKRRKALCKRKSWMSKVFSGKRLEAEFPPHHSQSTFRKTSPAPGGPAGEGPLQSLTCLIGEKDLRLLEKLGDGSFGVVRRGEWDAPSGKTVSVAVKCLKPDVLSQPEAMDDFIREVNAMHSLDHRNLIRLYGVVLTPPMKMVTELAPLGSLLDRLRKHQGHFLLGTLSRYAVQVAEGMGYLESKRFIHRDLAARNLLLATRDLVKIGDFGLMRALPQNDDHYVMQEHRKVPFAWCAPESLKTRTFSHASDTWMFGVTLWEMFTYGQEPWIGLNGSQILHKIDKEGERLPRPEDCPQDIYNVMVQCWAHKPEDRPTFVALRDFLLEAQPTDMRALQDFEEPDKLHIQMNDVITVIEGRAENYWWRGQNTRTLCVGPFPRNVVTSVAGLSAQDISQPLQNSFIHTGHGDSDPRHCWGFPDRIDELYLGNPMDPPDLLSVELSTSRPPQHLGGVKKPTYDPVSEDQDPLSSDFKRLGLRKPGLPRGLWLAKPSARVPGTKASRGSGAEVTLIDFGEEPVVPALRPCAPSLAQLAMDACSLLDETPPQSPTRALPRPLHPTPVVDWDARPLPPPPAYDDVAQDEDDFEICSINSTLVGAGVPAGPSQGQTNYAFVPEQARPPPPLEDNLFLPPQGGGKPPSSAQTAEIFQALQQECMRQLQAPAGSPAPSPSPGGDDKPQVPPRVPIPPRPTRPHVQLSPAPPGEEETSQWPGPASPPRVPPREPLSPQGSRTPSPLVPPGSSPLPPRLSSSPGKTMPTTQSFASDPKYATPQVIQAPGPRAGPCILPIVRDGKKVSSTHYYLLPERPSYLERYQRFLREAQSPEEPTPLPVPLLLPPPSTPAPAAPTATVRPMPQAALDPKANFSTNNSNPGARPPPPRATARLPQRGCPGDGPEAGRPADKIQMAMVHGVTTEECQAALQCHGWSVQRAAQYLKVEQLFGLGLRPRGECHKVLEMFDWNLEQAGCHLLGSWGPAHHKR
# [7] = target: Calcium/calmodulin-dependent protein kinase type 1 (Homo sapiens, UniProt Q14012); type: functional
# Sequence of Calcium/calmodulin-dependent protein kinase type 1 (Q14012 whole entry): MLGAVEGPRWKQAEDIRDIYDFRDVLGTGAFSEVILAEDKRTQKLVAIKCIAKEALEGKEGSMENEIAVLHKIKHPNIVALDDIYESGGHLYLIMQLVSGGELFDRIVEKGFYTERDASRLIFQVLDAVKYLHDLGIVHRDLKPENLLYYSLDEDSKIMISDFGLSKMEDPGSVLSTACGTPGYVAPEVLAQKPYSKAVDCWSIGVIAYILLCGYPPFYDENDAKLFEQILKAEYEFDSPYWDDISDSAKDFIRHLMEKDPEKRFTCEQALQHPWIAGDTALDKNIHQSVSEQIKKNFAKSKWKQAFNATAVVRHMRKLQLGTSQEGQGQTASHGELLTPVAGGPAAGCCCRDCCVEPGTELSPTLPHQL
# [8] = target: Calcium/calmodulin-dependent protein kinase type II subunit delta (Homo sapiens, UniProt Q13557); type: functional
# Sequence of Calcium/calmodulin-dependent protein kinase type II subunit delta (Q13557 whole entry): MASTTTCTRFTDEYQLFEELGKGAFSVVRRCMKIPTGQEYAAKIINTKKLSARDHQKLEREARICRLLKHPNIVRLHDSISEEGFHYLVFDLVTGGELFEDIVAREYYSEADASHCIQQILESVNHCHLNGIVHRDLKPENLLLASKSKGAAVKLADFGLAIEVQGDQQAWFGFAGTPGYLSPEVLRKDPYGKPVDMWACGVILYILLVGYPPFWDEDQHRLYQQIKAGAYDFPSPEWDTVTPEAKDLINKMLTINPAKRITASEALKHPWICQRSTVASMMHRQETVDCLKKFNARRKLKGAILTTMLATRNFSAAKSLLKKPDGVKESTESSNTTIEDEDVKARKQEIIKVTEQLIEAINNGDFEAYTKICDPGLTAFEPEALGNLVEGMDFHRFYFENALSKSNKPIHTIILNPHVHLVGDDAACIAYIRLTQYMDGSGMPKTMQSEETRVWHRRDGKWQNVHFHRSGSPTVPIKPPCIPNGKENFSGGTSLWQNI
# [9] = target: Serine/threonine-protein kinase Nek4 (Homo sapiens, UniProt P51957); type: functional
# [10] = target: Serine/threonine-protein kinase 3 (Homo sapiens, UniProt Q13188); type: functional;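 note: measured as one member of a kinome-wide kinase panel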
# Sequence of Serine/threonine-protein kinase 3 (Q13188 whole entry): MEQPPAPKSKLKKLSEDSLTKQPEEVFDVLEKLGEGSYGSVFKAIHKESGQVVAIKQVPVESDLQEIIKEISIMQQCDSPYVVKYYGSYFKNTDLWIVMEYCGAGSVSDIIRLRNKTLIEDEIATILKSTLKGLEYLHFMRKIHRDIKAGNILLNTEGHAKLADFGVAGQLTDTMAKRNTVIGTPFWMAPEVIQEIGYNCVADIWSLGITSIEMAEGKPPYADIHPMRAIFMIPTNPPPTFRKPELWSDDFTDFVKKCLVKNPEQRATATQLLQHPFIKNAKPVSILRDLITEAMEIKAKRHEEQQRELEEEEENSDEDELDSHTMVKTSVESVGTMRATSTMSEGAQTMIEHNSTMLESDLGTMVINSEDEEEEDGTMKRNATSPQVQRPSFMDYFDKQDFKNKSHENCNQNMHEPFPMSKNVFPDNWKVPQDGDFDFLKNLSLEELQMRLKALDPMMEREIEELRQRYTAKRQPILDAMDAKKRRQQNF
# [11] = target: Tyrosine-protein kinase FRK (Homo sapiens, UniProt P42685); type: functional;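 note: FRK tested as one member of a kinome panel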
# Sequence of Tyrosine-protein kinase FRK (P42685 whole entry): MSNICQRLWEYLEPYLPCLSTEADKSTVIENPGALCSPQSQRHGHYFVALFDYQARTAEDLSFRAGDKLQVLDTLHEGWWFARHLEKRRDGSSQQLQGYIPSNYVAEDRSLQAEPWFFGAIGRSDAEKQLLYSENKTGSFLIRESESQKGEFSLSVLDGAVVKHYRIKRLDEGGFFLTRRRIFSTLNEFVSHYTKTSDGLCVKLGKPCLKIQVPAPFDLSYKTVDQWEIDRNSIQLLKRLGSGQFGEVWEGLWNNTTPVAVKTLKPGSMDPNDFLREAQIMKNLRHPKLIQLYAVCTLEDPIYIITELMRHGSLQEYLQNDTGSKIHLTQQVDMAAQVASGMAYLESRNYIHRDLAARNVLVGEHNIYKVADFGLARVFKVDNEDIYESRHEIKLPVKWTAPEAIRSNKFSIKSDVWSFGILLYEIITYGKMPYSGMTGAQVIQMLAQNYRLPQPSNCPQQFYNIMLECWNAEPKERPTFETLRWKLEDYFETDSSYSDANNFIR
# [12] = target: Interleukin-1 receptor-associated kinase 4 (Homo sapiens, UniProt Q9NWZ3); type: functional
# [13] = target: Macrophage-stimulating protein receptor (Homo sapiens, UniProt Q04912); test: Navigating the Kinome. Panel member name: MST1R; type: functional
# [14] = target: Receptor tyrosine-protein kinase erbB-4 (Homo sapiens, UniProt Q15303); type: functional;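 note: ERBB4 member of a kinome-wide kinase profiling panel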
# [15] = target: Serine/threonine-protein kinase SIK2 (Homo sapiens, UniProt Q9H0K1); test: Navigating the Kinome. Panel member name: SIK2; type: functional
# [16] = target: Testis-specific serine/threonine-protein kinase 2 (Homo sapiens, UniProt Q96PF2); type: functional;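 note: part of the Navigating the Kinome panel, target entry STK22B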
# [17] = target: Serine/threonine-protein kinase Chk1 (Homo sapiens, UniProt O14757); type: functional;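 note: measured as one member of a kinome-wide kinase profiling panel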
# Sequence of Serine/threonine-protein kinase Chk1 (O14757 whole entry): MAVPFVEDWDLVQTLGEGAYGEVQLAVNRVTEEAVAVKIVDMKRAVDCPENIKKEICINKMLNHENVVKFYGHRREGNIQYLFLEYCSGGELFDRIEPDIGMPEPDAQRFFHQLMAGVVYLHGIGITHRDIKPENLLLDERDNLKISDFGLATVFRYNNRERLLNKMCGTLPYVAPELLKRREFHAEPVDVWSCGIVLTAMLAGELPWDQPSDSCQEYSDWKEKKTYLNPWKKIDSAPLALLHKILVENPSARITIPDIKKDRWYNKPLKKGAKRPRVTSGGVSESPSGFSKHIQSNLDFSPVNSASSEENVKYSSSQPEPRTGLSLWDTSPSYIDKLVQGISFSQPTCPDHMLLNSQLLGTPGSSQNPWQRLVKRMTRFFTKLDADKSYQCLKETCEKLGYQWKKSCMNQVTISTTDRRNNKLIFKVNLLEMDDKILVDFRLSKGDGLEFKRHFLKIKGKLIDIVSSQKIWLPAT
# [18] = target: Megakaryocyte-associated tyrosine-protein kinase (Homo sapiens, UniProt P42679); type: functional;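 note: affinity measured as one member of a kinase panel (Navigating the Kinome) against MATK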
# [19] = target: Vascular endothelial growth factor receptor 3 (Homo sapiens, UniProt P35916); type: functional;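 note: value from a kinome-wide profiling panel, with FLT4 as the panel member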
# [20] = target: Serine/threonine-protein kinase N2 (Homo sapiens, UniProt Q16513); type: functional
# [21] = target: Non-receptor tyrosine-protein kinase TYK2 (Homo sapiens, UniProt P29597); type: functional
# [22] = target: Serine/threonine-protein kinase TAO1 (Homo sapiens, UniProt Q7L7X3); type: functional
# [23] = target: Tyrosine-protein kinase Lck (Homo sapiens, UniProt P06239); type: functional;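 note: lck was assayed as one member of a kinase panel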
# [24] = target: Glycogen synthase kinase-3 beta (Homo sapiens, UniProt P49841); type: functional;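 note: value comes from a broad kinome profiling panel, with GSK3B as the panel member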
# [25] = target: cAMP-dependent protein kinase catalytic subunit alpha (Homo sapiens, UniProt P17612); type: functional
# Sequence of Nonstructural protein 1 (Q194T2 whole entry): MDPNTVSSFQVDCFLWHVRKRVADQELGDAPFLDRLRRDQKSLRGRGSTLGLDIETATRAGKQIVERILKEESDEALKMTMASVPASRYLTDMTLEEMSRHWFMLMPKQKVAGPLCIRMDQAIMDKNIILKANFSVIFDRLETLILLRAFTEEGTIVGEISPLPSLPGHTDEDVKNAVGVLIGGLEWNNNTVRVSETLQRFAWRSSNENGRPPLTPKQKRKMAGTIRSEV
structure (smiles),measurement,setting,value
CCCn1nc([N+](=O)[O-])c(C(C#N)c2nc3ccccc3s2)c(Cl)c1=O (configuration not stated),IC50,Nonstructural protein 1,24700 nM (active)
same,EC50,[1],661 nM (active)
same,AC50,[2],> 20000 nM (inactive)
NCCCn1cc(-c2cc(-c3cc4ccccc4s3)c3[nH]ncc3c2)c2nc(N)ncc21,Ki,[3],> 2510 nM (inactive)
same,Ki,[4],> 2000 nM (inactive)
same,Ki,[5],> 1580 nM (inactive)
same,Ki,[6],501 nM (active)
same,Ki,Activated CDC42 kinase 1,> 3980 nM (inactive)
same,Ki,[7],3160 nM (active)
same,Ki,[8],158 nM (active)
same,Ki,[9],200 nM (active)
same,Ki,[10],501 nM (active)
same,Ki,[11],> 2510 nM (inactive)
same,Ki,[12],7940 nM (active)
same,Ki,[13],> 3980 nM (inactive)
same,Ki,[14],> 3980 nM (inactive)
same,Ki,[15],251 nM (active)
same,Ki,[16],1580 nM (active)
same,Ki,[17],1260 nM (active)
same,Ki,[18],> 2000 nM (inactive)
same,Ki,[19],1000 nM (active)
same,Ki,[20],316 nM (active)
same,Ki,[21],> 2000 nM (inactive)
same,Ki,[22],> 5010 nM (inactive)
same,Ki,[23],> 3980 nM (inactive)
same,Ki,[24],316 nM (active)
same,Ki,[25],39.8 nM (active)
